Assay: Compression strength (hardening property) of powder stored under load for 2 months
Assay type: physicochemical
Conditions: Load 100 (table head [Kg]; text 100 g/cm^2); 20-30° C., relative humidity 40-70%
Description: Method for the Measurement of Compression Strength
(1) A test sample (500 g) is put in a poly-ethylene bag of 20 cm×20 cm in a room at a temperature of 20-30° C. and a relative humidity of 40-70%. The powder is levelled to an area of 20 cm×20 cm and air is forced out of the bag, and, then, the bag is sealed. This bag is further put in a kraft bag and this kraft bag is sealed.
(2) The kraft bag of (1) is placed horizontally on a flat plate and a plate is put thereon. […]
(3) With keeping the temperature of 20-30° C. and the relative humidity of 40-70%, the test sample is taken out after lapse of 2 months from the starting of application of load. Several test pieces (4 cm long×4 cm broad×2 cm high) are cut out from the sample.

Row | Compound | Compression strength after stored for 2 months [Kg/cm^2]
1 | C[C@@H](C(=O)[O-])N(CC(=O)[O-])CC(=O)[O-].[Na+].[Na+].[Na+] [compound 4, trisodium salt of (S)-α-alanine-N,N-diacetic acid, reference compound] | 2.8
2 | O=C(O)CN[C@@H](CC(=O)O)C(=O)O [compound 5, (S)-aspartic acid-N-monoacetic acid, reference compound] | 2.8
3 | O=C(O)CCN[C@@H](CC(=O)O)C(=O)O [compound 6, (S)-aspartic acid-N-monopropionic acid, reference compound] | 2.5
4 | O=C(O)C[C@@H](C(=O)O)N(CC(=O)O)CC(=O)O [compound 7, (S)-aspartic acid-N,N-diacetic acid, reference compound] | 2.3
5 | C[C@@H](C(=O)O)N(CC(=O)O)CC(=O)O [compound 8, (S)-α-alanine-N,N-diacetic acid, reference compound] | 2.6
6 | O=C([O-])CN(CCS(=O)(=O)[O-])CC(=O)[O-].[Na+].[Na+].[Na+] [compound 9, trisodium salt of taurine-N,N-diacetic acid, reference compound] | 2.5
7 | CN(CC(=O)[O-])CC(=O)[O-].[Na+].[Na+] [compound 10, disodium N-methyliminodiacetate, reference compound] | 2.6
8 | O=C([O-])CN(CC(=O)[O-])c1ccccc1C(=O)[O-].[Na+].[Na+].[Na+] [compound 11, trisodium salt of anthranilic acid-N,N-diacetic acid, reference compound] | 2.5
9 | O=C(O)CN(CCS(=O)(=O)O)CC(=O)O [compound 12, taurine-N,N-diacetic acid, reference compound] | 3.3
10 | CN(CC(=O)O)CC(=O)O [compound 13, N-methyliminodiacetic acid, reference compound] | 2.7
11 | O=C(O)CN(CC(=O)O)c1ccccc1C(=O)O [compound 14, anthranilic acid-N,N-diacetic acid, reference compound] | 2.5
12 | O=C([O-])CC(NCCNC(CC(=O)[O-])C(=O)[O-])C(=O)[O-].[Na+].[Na+].[Na+].[Na+] (stereo not shown) [compound 16, tetrasodium ethylenediaminedisuccinate, reference compound] | 2.8
13 | O=C([O-])C[C@H](NCCN[C@@H](CC(=O)[O-])C(=O)[O-])C(=O)[O-].[Na+].[Na+].[Na+].[Na+] [compound 17, tetrasodium (S,S)-ethylenediaminedisuccinate, reference compound] | 2.9
14 | O=C([O-])CC(NCCCNC(CC(=O)[O-])C(=O)[O-])C(=O)[O-].[Na+].[Na+].[Na+].[Na+] (stereo not shown) [compound 18, tetrasodium 1,3-propanediaminedisuccinate, reference compound] | 3.0
15 | O=C([O-])C[C@H](NCCCN[C@@H](CC(=O)[O-])C(=O)[O-])C(=O)[O-].[Na+].[Na+].[Na+].[Na+] [compound 19, tetrasodium (S,S)-1,3-propanediaminedisuccinate, reference compound] | 2.9
16 | O=C([O-])C[C@H](NCC(O)CN[C@@H](CC(=O)[O-])C(=O)[O-])C(=O)[O-].[Na+].[Na+].[Na+].[Na+] [compound 20, tetrasodium (S,S)-2-hydroxy-1,3-propanediaminedisuccinate, reference compound] | 2.7
17 | O=C(O)C[C@H](NCCN[C@@H](CC(=O)O)C(=O)O)C(=O)O [compound 21, ethylenediaminedisuccinic acid, reference compound] | 2.8
18 | O=C(O)C[C@H](NCCN[C@@H](CC(=O)O)C(=O)O)C(=O)O [compound 22, (S,S)-ethylenediaminedisuccinic acid, reference compound] | 2.5
19 | O=C(O)CC(NCCCNC(CC(=O)O)C(=O)O)C(=O)O (stereo not shown) [compound 23, 1,3-propanediaminedisuccinic acid, reference compound] | 2.7
20 | O=C(O)C[C@H](NCCCN[C@@H](CC(=O)O)C(=O)O)C(=O)O [compound 24, (S,S)-1,3-propanediaminedisuccinic acid, reference compound] | 2.8
21 | O=C(O)C[C@H](NCC(O)CN[C@@H](CC(=O)O)C(=O)O)C(=O)O [compound 25, (S,S)-2-hydroxy-1,3-propanediaminedisuccinic acid, reference compound] | 2.5
22 | O=C([O-])C[C@H](NCCN[C@@H](CC(=O)[O-])C(=O)[O-])C(=O)[O-].[Fe+3].[NH4+] [compound 26, iron ammonium (S,S)-ethylenediaminedisuccinate, reference compound] | 2.7
23 | O=C([O-])C[C@H](NCCN[C@@H](CC(=O)[O-])C(=O)[O-])C(=O)[O-].[Cu+2].[Na+].[Na+] [compound 27, copper disodium (S,S)-ethylenediaminedisuccinate, reference compound] | 2.8
24 | O=C([O-])C[C@H](NCCN[C@@H](CC(=O)[O-])C(=O)[O-])C(=O)[O-].[Na+].[Na+].[Ni+2] [compound 28, nickel disodium (S,S)-ethylenediaminedisuccinate, reference compound] | 2.5
25 | iron salt of anthranilic acid-N,N-diacetic acid [compound 15, reference compound] | 2.5

Same assay, conditions: Load 300 (table head [Kg]; text 300 g/cm^2); 20-30° C., relative humidity 40-70%

Row | Compound | Compression strength after stored for 2 months [Kg/cm^2]
26 | iron salt of anthranilic acid-N,N-diacetic acid [Example 45] | 0.8

Assay: Storage of aqueous solution or slurry for 60 days: HPLC analysis of components and appearance
Assay type: physicochemical
Conditions: keeping temperature 65° C.

Row | Compound | Appearance after kept for 60 days | Content of the compound of the formula [I] in aqueous solution after kept for 60 days [wt. %]
27 | O=C([O-])CN[C@@H](CC(=O)[O-])C(=O)[O-].[Na+].[Na+].[Na+] [Example 93, trisodium salt of (S)-aspartic acid-N-monoacetic acid] | Light yellow slurry | 63.7
28 | O=C([O-])C[C@@H](C(=O)[O-])N(CC(=O)[O-])CC(=O)[O-].[Na+].[Na+].[Na+].[Na+] [Example 94, tetrasodium salt of (S)-aspartic acid-N,N-diacetic acid] | Light yellow slurry | 64.5
29 | O=C([O-])CCN[C@@H](CC(=O)[O-])C(=O)[O-].[Na+].[Na+].[Na+] [Example 95, trisodium salt of (S)-aspartic acid-N-monopropionic acid] | Light yellow slurry | 65.4
30 | C[C@@H](C(=O)[O-])N(CC(=O)[O-])CC(=O)[O-].[Na+].[Na+].[Na+] [Example 96, trisodium salt of (S)-α-alanine-N,N-diacetic acid] | Light yellow slurry | 64.7

Same assay, conditions: keeping temperature 70° C.

Row | Compound | Appearance after kept for 60 days | Content of the compound of the formula [I] in aqueous solution after kept for 60 days [wt. %]
31 | O=C([O-])CN[C@@H](CC(=O)[O-])C(=O)[O-].[Na+].[Na+].[Na+] [Example 97, trisodium salt of (S)-aspartic acid-N-monoacetic acid] | White slurry | 76.8
32 | O=C([O-])C[C@@H](C(=O)[O-])N(CC(=O)[O-])CC(=O)[O-].[Na+].[Na+].[Na+].[Na+] [Example 98, tetrasodium salt of (S)-aspartic acid-N,N-diacetic acid] | White slurry | 78.5

Same assay, conditions: keeping temperature 75° C.

Row | Compound | Appearance after kept for 60 days | Content of the compound of the formula [I] in aqueous solution after kept for 60 days [wt. %]
33 | O=C([O-])CN[C@@H](CC(=O)[O-])C(=O)[O-].[Na+].[Na+].[Na+] [Example 89, trisodium salt of (S)-aspartic acid-N-monoacetic acid] | Colorless transparent aqueous solution | 49.4
34 | O=C([O-])C[C@@H](C(=O)[O-])N(CC(=O)[O-])CC(=O)[O-].[Na+].[Na+].[Na+].[Na+] [Example 90, tetrasodium salt of (S)-aspartic acid-N,N-diacetic acid] | Colorless transparent aqueous solution | 49.5
35 | O=C([O-])CCN[C@@H](CC(=O)[O-])C(=O)[O-].[Na+].[Na+].[Na+] [Example 91, trisodium salt of (S)-aspartic acid-N-monopropionic acid] | Colorless transparent aqueous solution | 49.8
36 | C[C@@H](C(=O)[O-])N(CC(=O)[O-])CC(=O)[O-].[Na+].[Na+].[Na+] [Example 92, trisodium salt of (S)-α-alanine-N,N-diacetic acid] | Colorless transparent aqueous solution | 49.8

— patent US6426229B1, “Chelating agent and detergent comprising the same” (Mitsubishi Rayon Co., Ltd., priority 1995, dated 2002)
